Results reported in publication PMC12040169 (PLOS Biology, 2025).

assay: in vitro; conditions: human, hela cells, % viability

Row | Compound | viability at 28.5 h, 10 µM [%]
1 | CNC(=O)C1CCCN1C(=O)c1nnn(Cc2ccc(F)cc2F)c1C (stereo not drawn) [CBK306496] | 93.2
2 | COC(=O)c1ccccc1OC(=O)COc1ccc(Cl)cc1Br [CBK268733] | 83.7
3 | Cc1nnc(SCc2nc3ccccc3c(=O)[nH]2)[nH]1 [CBK267830] | 90
4 | CCn1nc(C)c(-c2cncn2CCn2nc(C)c(Cl)c2C)c1C [CBK281768] | 90.4
5 | COc1ccc(-c2cnc3[nH]c(=O)n([C@H](CO)C(C)C)c3n2)c(OC)c1OC [CBK065008] | 99.1
6 | CC(=O)Nc1c(O)nc(SCC(=O)Nc2ccc(Cl)cc2)[nH]c1=O [CBK266214] | 106
7 | Cc1nnc(C(C)Sc2nnc(-c3ccc(F)cc3)n2CC2CCCO2)o1 (stereo not drawn) [CBK298298] | 94.4
8 | Cc1ccc(Cn2nc(NC(=O)c3cc(C)on3)c3ccccc32)cc1 [CBK048215] | 90.8
9 | CC(C)NC(=O)NC[C@H]1C[C@@H]2CCN1C[C@@H]2c1cc(C2CCCCC2)nn1C [CBK289107] | 90.8
10 | CCN1CCN(C(=O)c2cnccn2)CC1 [CBK200373] | 81.6
11 | CNC(=O)CSc1nc2ccccc2nc1C(F)(F)F [CBK107206] | 95.9
12 | CCN1C(=O)C2(CC(=O)N(CCOC)C2=O)c2cc(Cl)ccc21 (stereo not drawn) [CBK075244] | 121
13 | Cc1ccc(S(=O)(=O)NCCn2nc(C)c(C)c2C)s1 [CBK281502] | 86.7
14 | Cc1cc2ncc3c(n2n1)CC1CCC3N1C(=O)c1cccs1 (stereo not drawn) [CBK284415] | 103
15 | COc1ccc(-c2cc(Nc3ccc(N(C)C)cc3)ncn2)cc1OC [CBK036969] | 108
16 | Cc1ccc(-n2c(SCC(=O)NC(C)Cc3ccccc3)nc3sc4c(c3c2=O)CC(C)(C)OC4)cc1 (stereo not drawn) [CBK267714] | 94.7
17 | Cc1nn(C(C)C)c(C)c1CN1CCC(c2c(C(=O)NC(C)C)sc3ccccc23)C1 (stereo not drawn) [CBK285890] | 95.5
18 | COC(=O)c1ccc(C)c(N(CCO)CCO)c1 [CBK262418] | 102
19 | Nc1ncc(-c2cccc3cccnc23)nc1N1CCOCC1 [CBK063383] | 93.2
20 | CCN(CC)c1ccc(C(=O)Cn2c(=O)n(S(=O)(=O)c3ccc4ccccc4c3)c3ccccc32)cc1 [CBK106505] | 88.9
21 | O=C(O)c1cc(S(=O)(=O)N2CCOCC2)ccc1F [CBK268398] | 106
22 | Cc1nn(CC(=O)N2CCN(C)CC2)c(=O)c2ccccc12 [CBK304221] | 93.3
23 | CC(C)Nc1nccnc1OC1CCNC1 (stereo not drawn) [CBK115279] | 92.5

Row | Compound | viability at 28.5 h, 10 µM [%]
24 | O=C(C1CCC1)N1CCN(c2ccccn2)CC1 [CBK026058] | 107
25 | CNS(=O)(=O)c1ccc(C(C)NC(=O)N2CCN3CCC2CC3)cc1 (stereo not drawn) [CBK304765] | 92.2
26 | CN1CCN(C(=O)c2ccccc2NC(=O)NC2CCCCC2)CC1 [CBK269771] | 94
27 | O=C1NCCCC12CCN(Cc1cccc3ncccc13)CC2 [CBK285033] | 101
28 | O=C1CCC(C(=O)O)(c2ccccc2)N1c1ccccc1 (stereo not drawn) [CBK116358] | 94.8
29 | CC1=CC(c2ccccc2)N2N=C(NC(=O)CCCC(=O)O)NC2=N1 (stereo not drawn) [CBK287037] | 81.1
30 | Cc1ccc2nc3c(cc2c1)CNCC(C)O3 (stereo not drawn) [CBK281941] | 85.9
31 | O=C(COC(=O)C1CCC(N2C(=O)c3ccccc3C2=O)CC1)c1ccc(-c2ccccc2)cc1 (stereo not drawn) [CBK264789] | 90.4
32 | O=S(=O)(Nc1nn(Cc2ccc(C(F)(F)F)cc2)c2ccccc12)c1cccc2nsnc12 [CBK048086] | 94.8
33 | O=C(O)c1ccc(Sc2ccc(S(=O)(=O)c3ccc(C(=O)O)c(C(=O)O)c3)cc2)cc1 [CBK261253] | 106
34 | CC(C)(C)c1ccc([S+]([O-])c2cncc(N3CCNCC3)n2)cc1 (stereo not drawn) [CBK051434C] | 88.4
35 | COc1cccc(-n2c(C)nnc2C2(OC(C)=O)CCN(CCc3ccccc3)CC2)c1 [CBK016371] | 108
36 | O=c1[nH]nc2c(S(=O)(=O)N3CCCC3)cccn12 [CBK288460] | 85.9
37 | CC(=O)c1sc2nc(-c3ccccc3)nc(C)c2c1N [CBK115368] | 90.5
38 | CO/C(=N\S(=O)(=O)c1ccccc1)c1ccccc1 [CBK023221] | 89.4
39 | Cn1cc(C(=O)NC(Cc2ccsc2)c2nccs2)ccc1=O (stereo not drawn) [CBK285140] | 98.5
40 | Cc1n[nH]c2c1CN(Cc1nc(C)c(C)n1C)CC2 [CBK307456] | 84.7
41 | c1ccc2nc(N3CCCC3)c(OC3CCOC3)nc2c1 (stereo not drawn) [CBK115769] | 99.4
42 | COc1cc(CNc2ccc(N3CCOCC3)c(Cl)c2)ccc1OCc1ccccc1F [CBK074392] | 93.6
43 | COc1ccccc1-c1nnc(Sc2nc([N+](=O)[O-])nn2C)o1 [CBK266858] | 85.1
44 | O=C(C1CCCN1)N1CC2(CCCC2)c2c(F)cccc21 (stereo not drawn) [CBK304489] | 90.1
45 | Cc1cc(CNS(=O)(=O)c2cccc3nonc23)nn1C [CBK062157] | 98.2
46 | O=C(O)c1nc2n(n1)C(C(F)(F)F)CC(c1cccs1)N2 (stereo not drawn) [CBK026415] | 97

Row | Compound | viability at 28.5 h, 10 µM [%]
47 | c1ccc2sc(SCCN3CCCCC3)nc2c1 [CBK016366] | 109
48 | COc1ccc([C@@]23CC[C@@H](NC(=O)c4ccc(F)c(C(F)(F)F)c4)C[C@@H]2N(C)CC3)cc1OC [CBK074967T] | 93.6
49 | c1ccc2c(c1)N1CCCN=C1N2CCN1CCOCC1 [CBK278300C] | 108
50 | COc1cc(OC)nc(CN2C(=O)CC3(C2=O)C(=O)N(CCCN(C)C(=O)c2ccco2)c2ccc(F)cc23)n1 (stereo not drawn) [CBK076006] | 85.6
51 | NS(=O)(=O)c1ccc(NC(=O)C2CCCN(S(=O)(=O)c3ccc(Cl)cc3)C2)cc1 (stereo not drawn) [CBK266813] | 91.7
52 | Cc1ccc(OCC(=O)NC(=S)Nc2cc(C(=O)O)ccc2C)cc1C [CBK264955] | 92.8
53 | O=C([C@@H]1Cc2c([nH]c3ccccc23)C2(CCN(Cc3ccccc3)C2)N1)N1CCOCC1 (stereo partly drawn) [CBK059363T] | 97.3
54 | Cc1nc(C(Cc2ccsc2)NC(=O)c2cc[nH]n2)sc1C (stereo not drawn) [CBK284776] | 85.9
55 | CC1CCN(C(=O)C2C3CCC4(CC(=O)c5ccccc5O4)C32)CC1 (stereo not drawn) [CBK284872] | 98.7
56 | c1ccc2c(CNCCN3CCOCC3)cccc2c1 [CBK278156C] | 90.9
57 | CCN(CC)C(=O)CN1CCC(Oc2cncc(OCCN3CCOCC3)n2)C1 (stereo not drawn) [CBK084490] | 101
58 | Cc1ccccc1C(=O)Nc1cccc(NC(=O)c2nc[nH]n2)c1 [CBK267108] | 86.6
59 | O=C(NCc1cccnc1)N1CCCC(CO)C1 (stereo not drawn) [CBK156037] | 90.5
60 | Cn1c(=O)[nH]c(=O)c2c1nc(N1CCN(Cc3ccccc3)CC1)n2CCCc1ccccc1 [CBK269529] | 104
61 | O=C(CC(NC1CCCCC1)C(=O)O)Nc1cccc(Cl)c1 (stereo not drawn) [CBK266916] | 98.5
62 | COc1ccc(C(=O)Nc2ccccc2C(=O)N2CCOCC2)cc1Br [CBK269923] | 85.4
63 | COCC(=O)NC1CC(C)(C)Cc2c1cnn2-c1ccc(C)cc1 (stereo not drawn) [CBK282866] | 118
64 | CCc1nnc(NS(=O)(=O)c2ccc(NCc3cc(Cl)ccc3O)cc2)s1 [CBK200051] | 100
65 | CSCCN1CCC(Oc2nccnc2OCCN2C(=O)CCC2=O)CC1 [CBK084351] | 100
66 | CCCNC(c1ccccc1)c1ccncc1 (stereo not drawn) [CBK028505] | 96.7
67 | NCCSc1cc(C(F)(F)F)nc2ccccc12 [CBK017035] | 81.9
68 | S=C(Cc1csc2ccccc12)NC1CCCCC1 [CBK023515] | 88.7
69 | CN1CCCN(c2cnn(Cc3ccc(Cl)s3)c(=O)c2)CC1 [CBK307123] | 90.8

Row | Compound | viability at 28.5 h, 10 µM [%]
70 | COc1ccc(-n2nc(N)c3c(=O)oc(N(C)C)nc32)cc1 [CBK007445] | 89.9
71 | O=C(O)CC(=Cc1csc(-c2ccc(Cl)cc2)n1)c1nc2ccccc2o1 [CBK297112] | 104
72 | CC(C)(CO)CNc1nc(-c2ccsc2)cnc1N [CBK063499] | 103
73 | Nn1c(SCc2ccc(Br)cc2)nnc1-c1ccccn1 [CBK267552] | 89.5
74 | CCOC(=O)N1CCC(NS(=O)(=O)c2ccc(Cl)c(Cl)c2Cl)CC1 [CBK045471] | 96.4
75 | CCN(Cc1ncc[nH]1)[C@H]1CCO[C@@H](c2ccccc2-c2ccc(OC)cc2)C1 [CBK285842] | 104
76 | Cn1cc(NC(=O)c2ccc(CN3CCCC3=O)cc2)cn1 [CBK306322] | 89.7
77 | CN(C)c1ccc(C(=O)N2CC(=O)Nc3ccccc32)cc1 [CBK017839] | 89.2
78 | CC(C)(O)C#Cc1ccc(C(=O)NCCCNC(=O)c2ccc(C#CC(C)(C)O)s2)s1 [CBK267142] | 93.8
79 | O=C(CSc1ccc2nnc(-c3ccc(F)cc3)n2n1)N1CCOCC1 [CBK287521] | 96.9
80 | Cn1ccnc1C(NC(=O)N1CCOc2ccc(Cl)cc2C1)C1CC1 (stereo not drawn) [CBK307212] | 91
81 | CC(=O)Nc1ccc(-c2cncc(Nc3ccc(F)c(Cl)c3)n2)cc1 [CBK065765] | 96.1
82 | O=C1N[C@@H]2CCN(CC(=O)N3CCCC3)C[C@@H]2CCCCCOc2ccccc21 [CBK292141] | 107
83 | COCc1[nH]nc(O)c1Cc1c(Cl)cccc1Cl [CBK105305] | 91
84 | Cc1nc(-c2cccnc2)sc1C(=O)NC(C)C1CC2CCC1C2 (stereo not drawn) [CBK281637] | 84.2
85 | Cc1oc(C2CC2)cc1C(=O)N1CCCC1c1nc2ccccc2[nH]1 (stereo not drawn) [CBK283741] | 88.1
86 | N#Cc1c(Nc2cccc(C(F)(F)F)c2)sc(C(=O)c2ccc3c(c2)OCO3)c1N [CBK074399] | 89.2
87 | COc1ccc(CCCC(=O)N2CCC(c3c(C(N)=O)sc4ccccc34)C2)cc1C (stereo not drawn) [CBK285848] | 94
88 | Cc1ccc(NC(=O)N2CCc3ccccc3C2)cc1 [CBK155309] | 93.6
89 | CS(=O)(=O)Nc1ccc(-c2cc(F)cc(F)c2)c2ccccc12 [CBK083743] | 89.8
90 | CC(C)c1cc(C(=O)N2CCCCCC2c2ccn(C)n2)no1 (stereo not drawn) [CBK283048] | 85.3
